Experimental data as given in US20250312462A1, “PAK1 DEGRADERS AND METHODS OF USE THEREOF” (INSTITUTE FOR CANCER RESEARCH D/B/A THE RESEARCH INSTITUTE …, priority 2022, published 2025).

Legend:
PFPK5(P. falciparum) = target: T1, PFPK5(P. falciparum) (Plasmodium falciparum, UniProt P61075); assay: KINOMEscan; assay type: binding; conditions: read-out: Percent Control
T1 construct: purchased DiscoverX

PRKX = PRKX (Homo sapiens, UniProt P51817); assay: KINOMEscan; conditions: read-out: Percent Control
Method: (§1) The kinase engagement assay (KINOMEscan®) was performed by DiscoverX assessing binding abilities toward a set of kinases.

NLK = NLK (Homo sapiens, UniProt Q9UBE8); assay: KINOMEscan; conditions: read-out: Percent Control
Sequence of NLK (Q9UBE8 whole entry): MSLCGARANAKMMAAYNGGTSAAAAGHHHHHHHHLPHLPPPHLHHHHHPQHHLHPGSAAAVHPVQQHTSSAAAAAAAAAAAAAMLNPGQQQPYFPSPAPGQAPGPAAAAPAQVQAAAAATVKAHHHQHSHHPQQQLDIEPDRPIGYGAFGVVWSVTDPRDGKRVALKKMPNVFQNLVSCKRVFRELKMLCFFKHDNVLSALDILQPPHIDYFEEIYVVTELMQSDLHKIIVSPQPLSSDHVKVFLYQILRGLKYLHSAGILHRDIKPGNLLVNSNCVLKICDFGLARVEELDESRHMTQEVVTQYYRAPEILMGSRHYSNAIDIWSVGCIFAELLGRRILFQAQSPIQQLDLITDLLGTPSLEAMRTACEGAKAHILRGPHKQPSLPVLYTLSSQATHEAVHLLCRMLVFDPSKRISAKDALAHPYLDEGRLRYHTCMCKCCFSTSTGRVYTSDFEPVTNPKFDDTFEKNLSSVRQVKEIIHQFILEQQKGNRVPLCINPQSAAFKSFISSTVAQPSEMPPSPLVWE
Method: as §1

FRK = FRK (Homo sapiens, UniProt P42685); assay: KINOMEscan; conditions: read-out: Percent Control
Method: as §1

CAMK1D = CAMK1D (Homo sapiens, UniProt Q8IU85); assay: KINOMEscan; conditions: read-out: Percent Control
Sequence of CAMK1D (Q8IU85 whole entry): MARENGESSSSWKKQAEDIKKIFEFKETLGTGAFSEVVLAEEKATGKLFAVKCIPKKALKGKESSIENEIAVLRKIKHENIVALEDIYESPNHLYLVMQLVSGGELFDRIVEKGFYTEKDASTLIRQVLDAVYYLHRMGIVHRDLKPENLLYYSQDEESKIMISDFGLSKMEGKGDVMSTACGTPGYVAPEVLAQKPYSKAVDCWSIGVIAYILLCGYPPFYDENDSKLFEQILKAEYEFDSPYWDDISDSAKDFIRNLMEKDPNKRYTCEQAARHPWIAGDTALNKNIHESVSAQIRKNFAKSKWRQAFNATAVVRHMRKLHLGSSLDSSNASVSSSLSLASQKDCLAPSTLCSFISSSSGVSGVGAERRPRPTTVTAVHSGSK
Method: as §1

STK39 = STK39 (Homo sapiens, UniProt Q9UEW8); assay: KINOMEscan; conditions: read-out: Percent Control
Method: as §1

BUB1 = BUB1 (Homo sapiens, UniProt O43683); assay: KINOMEscan; conditions: read-out: Percent Control
Method: as §1

CSK = CSK (Homo sapiens, UniProt P41240); assay: KINOMEscan; conditions: read-out: Percent Control
Method: as §1

PAK4 = PAK4 (Homo sapiens, UniProt O96013); assay: KINOMEscan; conditions: read-out: Percent Control
Method: as §1

TLK2 = TLK2 (Homo sapiens, UniProt Q86UE8); assay: KINOMEscan; conditions: read-out: Percent Control
Method: as §1

AMPK-alpha1 = AMPK-alpha1 (Homo sapiens, UniProt Q13131); assay: KINOMEscan; conditions: read-out: Percent Control
Method: as §1

CDK5 = CDK5 (Homo sapiens, UniProt Q00535); assay: KINOMEscan; conditions: read-out: Percent Control
Method: as §1

GSK3B = GSK3B (Homo sapiens, UniProt P49841); assay: KINOMEscan; conditions: read-out: Percent Control
Sequence of GSK3B (P49841 whole entry): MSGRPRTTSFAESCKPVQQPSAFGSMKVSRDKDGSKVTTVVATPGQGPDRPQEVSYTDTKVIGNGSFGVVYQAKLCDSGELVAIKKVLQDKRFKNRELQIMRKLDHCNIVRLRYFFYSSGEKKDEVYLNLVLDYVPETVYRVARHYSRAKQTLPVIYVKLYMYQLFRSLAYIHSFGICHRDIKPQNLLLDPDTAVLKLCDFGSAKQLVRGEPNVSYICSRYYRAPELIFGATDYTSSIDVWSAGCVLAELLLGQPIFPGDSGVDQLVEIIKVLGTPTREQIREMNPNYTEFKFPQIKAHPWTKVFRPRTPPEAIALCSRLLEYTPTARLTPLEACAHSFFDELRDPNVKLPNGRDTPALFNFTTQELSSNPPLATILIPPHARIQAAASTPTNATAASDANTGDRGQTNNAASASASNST
Method: as §1

HCK = HCK (Homo sapiens, UniProt P08631); assay: KINOMEscan; conditions: read-out: Percent Control
Method: as §1

GRK3 = GRK3 (Homo sapiens, UniProt P35626); assay: KINOMEscan; conditions: read-out: Percent Control
Method: as §1

SYK = SYK (Homo sapiens, UniProt P43405); assay: KINOMEscan; conditions: read-out: Percent Control
Method: as §1

TESK1 = TESK1 (Homo sapiens, UniProt Q15569); assay: KINOMEscan; conditions: read-out: Percent Control
Method: as §1

TNK2 = TNK2 (Homo sapiens, UniProt Q07912); assay: KINOMEscan; conditions: read-out: Percent Control
Method: as §1

INSR = INSR (Homo sapiens, UniProt P06213); assay: KINOMEscan; conditions: read-out: Percent Control
Method: as §1

SRPK3 = SRPK3 (Homo sapiens, UniProt Q9UPE1); assay: KINOMEscan; conditions: read-out: Percent Control
Method: as §1

TAOK2 = TAOK2 (Homo sapiens, UniProt Q9UL54); assay: KINOMEscan; conditions: read-out: Percent Control
Method: as §1

FGFR3(G697C) = FGFR3(G697C) (Homo sapiens, UniProt P22607, G697C); assay: KINOMEscan; conditions: read-out: Percent Control
Method: as §1

PIP5K1A = PIP5K1A (Homo sapiens, UniProt Q99755); assay: KINOMEscan; conditions: read-out: Percent Control
Method: as §1

EGFR(T790M) = EGFR(T790M) (Homo sapiens, UniProt P00533, T790M); assay: KINOMEscan; conditions: read-out: Percent Control
Sequence of EGFR(T790M) (P00533 25-1210 T790M): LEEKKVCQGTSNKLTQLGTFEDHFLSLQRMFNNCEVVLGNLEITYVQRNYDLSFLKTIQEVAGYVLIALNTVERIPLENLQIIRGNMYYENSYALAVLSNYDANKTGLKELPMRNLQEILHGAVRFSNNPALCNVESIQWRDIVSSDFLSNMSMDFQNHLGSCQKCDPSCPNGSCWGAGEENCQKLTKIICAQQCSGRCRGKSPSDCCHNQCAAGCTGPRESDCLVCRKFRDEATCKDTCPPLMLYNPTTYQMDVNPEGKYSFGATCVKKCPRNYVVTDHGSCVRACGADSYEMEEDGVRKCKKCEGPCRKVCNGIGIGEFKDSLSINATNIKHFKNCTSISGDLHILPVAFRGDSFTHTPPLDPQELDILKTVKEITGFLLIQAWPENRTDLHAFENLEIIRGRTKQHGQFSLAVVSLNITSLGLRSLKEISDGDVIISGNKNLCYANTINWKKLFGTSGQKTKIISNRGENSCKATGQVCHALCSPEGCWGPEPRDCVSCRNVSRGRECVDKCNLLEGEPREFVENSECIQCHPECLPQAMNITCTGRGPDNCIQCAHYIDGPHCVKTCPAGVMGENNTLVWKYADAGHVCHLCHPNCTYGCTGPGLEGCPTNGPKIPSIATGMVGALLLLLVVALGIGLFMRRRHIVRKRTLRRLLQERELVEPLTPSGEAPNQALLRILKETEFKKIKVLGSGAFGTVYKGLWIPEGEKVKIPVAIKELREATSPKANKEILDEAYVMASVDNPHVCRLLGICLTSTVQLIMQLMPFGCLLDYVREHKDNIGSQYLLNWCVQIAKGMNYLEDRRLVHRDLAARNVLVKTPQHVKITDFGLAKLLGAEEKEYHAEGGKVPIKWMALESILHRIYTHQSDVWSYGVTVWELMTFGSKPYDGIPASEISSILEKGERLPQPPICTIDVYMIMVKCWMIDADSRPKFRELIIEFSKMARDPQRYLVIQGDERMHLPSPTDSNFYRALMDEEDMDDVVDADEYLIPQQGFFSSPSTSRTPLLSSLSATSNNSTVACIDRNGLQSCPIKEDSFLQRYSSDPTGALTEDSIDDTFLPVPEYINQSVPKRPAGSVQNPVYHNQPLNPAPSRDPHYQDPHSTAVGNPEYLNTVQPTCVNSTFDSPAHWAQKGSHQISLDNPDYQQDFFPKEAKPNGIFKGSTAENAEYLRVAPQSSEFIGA
Method: as §1

MST1R = MST1R (Homo sapiens, UniProt Q04912); assay: KINOMEscan; conditions: read-out: Percent Control
Sequence of MST1R (Q04912 25-1400): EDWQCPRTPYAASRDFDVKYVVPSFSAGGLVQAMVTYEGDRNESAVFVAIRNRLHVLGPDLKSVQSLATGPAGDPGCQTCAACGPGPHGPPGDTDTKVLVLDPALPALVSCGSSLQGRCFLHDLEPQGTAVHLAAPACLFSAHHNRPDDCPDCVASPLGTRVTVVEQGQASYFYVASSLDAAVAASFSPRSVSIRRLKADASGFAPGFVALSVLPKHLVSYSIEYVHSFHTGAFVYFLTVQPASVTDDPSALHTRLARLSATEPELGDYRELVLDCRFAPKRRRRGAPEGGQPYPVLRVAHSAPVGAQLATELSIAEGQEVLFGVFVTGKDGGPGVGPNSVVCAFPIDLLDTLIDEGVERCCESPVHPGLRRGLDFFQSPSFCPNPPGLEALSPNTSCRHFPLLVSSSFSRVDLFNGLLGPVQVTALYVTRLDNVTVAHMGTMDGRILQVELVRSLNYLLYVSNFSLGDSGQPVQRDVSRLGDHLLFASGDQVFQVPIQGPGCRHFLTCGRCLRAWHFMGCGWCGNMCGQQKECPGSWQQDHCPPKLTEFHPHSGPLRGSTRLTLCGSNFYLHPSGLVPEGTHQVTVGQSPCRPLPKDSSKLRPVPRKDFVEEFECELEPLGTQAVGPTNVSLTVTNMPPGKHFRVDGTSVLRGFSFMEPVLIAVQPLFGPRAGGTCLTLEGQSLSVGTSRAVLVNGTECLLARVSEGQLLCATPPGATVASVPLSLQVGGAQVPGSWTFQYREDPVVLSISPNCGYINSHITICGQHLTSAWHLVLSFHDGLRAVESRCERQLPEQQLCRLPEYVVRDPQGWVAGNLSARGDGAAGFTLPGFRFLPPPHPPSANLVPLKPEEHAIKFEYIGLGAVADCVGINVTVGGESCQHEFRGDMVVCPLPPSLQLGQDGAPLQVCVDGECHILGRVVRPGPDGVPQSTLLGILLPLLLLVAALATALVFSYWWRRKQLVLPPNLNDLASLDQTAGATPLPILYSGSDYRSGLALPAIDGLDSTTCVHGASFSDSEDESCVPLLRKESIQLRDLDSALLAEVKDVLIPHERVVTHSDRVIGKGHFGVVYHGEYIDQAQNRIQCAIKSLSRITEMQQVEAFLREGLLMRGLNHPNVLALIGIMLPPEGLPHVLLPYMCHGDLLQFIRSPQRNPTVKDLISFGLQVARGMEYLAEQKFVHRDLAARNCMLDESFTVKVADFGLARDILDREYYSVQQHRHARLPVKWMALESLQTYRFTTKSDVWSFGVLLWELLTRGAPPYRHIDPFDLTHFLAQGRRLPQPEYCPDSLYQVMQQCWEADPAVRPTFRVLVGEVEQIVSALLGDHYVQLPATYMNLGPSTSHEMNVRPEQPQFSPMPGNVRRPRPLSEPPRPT
Method: as §1

p38-beta = p38-beta (Homo sapiens, UniProt Q15759); assay: KINOMEscan; conditions: read-out: Percent Control
Sequence of p38-beta (Q15759 whole entry): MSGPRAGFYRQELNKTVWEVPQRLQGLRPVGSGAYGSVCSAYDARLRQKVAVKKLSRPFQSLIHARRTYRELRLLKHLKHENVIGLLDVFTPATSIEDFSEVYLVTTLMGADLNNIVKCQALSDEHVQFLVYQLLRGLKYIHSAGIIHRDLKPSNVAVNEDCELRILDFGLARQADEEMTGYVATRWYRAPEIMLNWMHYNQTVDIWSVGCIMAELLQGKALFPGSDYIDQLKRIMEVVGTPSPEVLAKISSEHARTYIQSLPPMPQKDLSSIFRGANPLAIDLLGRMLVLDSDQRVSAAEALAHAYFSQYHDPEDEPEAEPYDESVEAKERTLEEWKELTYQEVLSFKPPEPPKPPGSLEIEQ
Method: as §1

EIF2AK1 = EIF2AK1 (Homo sapiens, UniProt Q9BQI3); assay: KINOMEscan; conditions: read-out: Percent Control
Method: as §1

MAP3K15 = MAP3K15 (Homo sapiens, UniProt Q6ZN16); assay: KINOMEscan; conditions: read-out: Percent Control
Method: as §1

GRK7 = GRK7 (Homo sapiens, UniProt Q8WTQ7); assay: KINOMEscan; conditions: read-out: Percent Control
Method: as §1

LATS1 = LATS1 (Homo sapiens, UniProt O95835); assay: KINOMEscan; conditions: read-out: Percent Control
Method: as §1

MARK4 = MARK4 (Homo sapiens, UniProt Q96L34); assay: KINOMEscan; conditions: read-out: Percent Control
Sequence of MARK4 (Q96L34 whole entry): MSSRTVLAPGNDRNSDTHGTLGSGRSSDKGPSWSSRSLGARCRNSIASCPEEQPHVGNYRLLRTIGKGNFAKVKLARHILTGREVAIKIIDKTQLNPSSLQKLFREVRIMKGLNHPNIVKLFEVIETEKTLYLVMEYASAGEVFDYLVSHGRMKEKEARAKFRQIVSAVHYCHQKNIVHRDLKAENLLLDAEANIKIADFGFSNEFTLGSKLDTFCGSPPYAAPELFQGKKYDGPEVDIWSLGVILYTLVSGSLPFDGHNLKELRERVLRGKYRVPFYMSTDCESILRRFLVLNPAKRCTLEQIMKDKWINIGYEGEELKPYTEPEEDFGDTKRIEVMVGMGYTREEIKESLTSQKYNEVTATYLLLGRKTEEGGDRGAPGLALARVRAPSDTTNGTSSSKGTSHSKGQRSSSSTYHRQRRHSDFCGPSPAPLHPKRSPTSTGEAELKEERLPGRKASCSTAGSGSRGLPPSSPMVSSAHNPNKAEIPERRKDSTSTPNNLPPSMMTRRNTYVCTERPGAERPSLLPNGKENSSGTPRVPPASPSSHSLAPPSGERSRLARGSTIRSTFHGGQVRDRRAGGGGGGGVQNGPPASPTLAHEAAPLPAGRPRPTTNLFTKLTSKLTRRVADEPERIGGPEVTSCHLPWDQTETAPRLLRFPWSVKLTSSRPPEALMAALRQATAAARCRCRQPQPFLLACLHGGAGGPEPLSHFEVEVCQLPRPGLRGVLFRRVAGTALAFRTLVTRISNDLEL
Method: as §1

PIK3CB = PIK3CB (Homo sapiens, UniProt P42338); assay: KINOMEscan; conditions: read-out: Percent Control
Method: as §1

PRKCI = PRKCI (Homo sapiens, UniProt P41743); assay: KINOMEscan; conditions: read-out: Percent Control
Method: as §1

PAK1 = PAK1 (Homo sapiens, UniProt Q13153); assay: PAK1 degradation in Panc1 cells, Western blot; assay type: cell-based; parameters: endogenous in cells; conditions: compared with BJG-05-014 and BJG-05-027
Method: In vitro kinase assays were performed using recombinant PAK1 and PAK2, using a library of small molecule protein kinase inhibitors. […] FIG. 1C is a series of Western blots showing the degradation of PAK1 in Panc1 cells by the NVS-PAK1-1-based (allosteric) degraders BJG-05-014, BJG-05-027, and BJG-05-039. Quantification is shown below in the bar graph. FIG. 1D is a series of Western blots showing PAK1, PAK2, and GAPDH in Panc1 cells treated with the indicated amounts of the NVS-PAK1-1-based degrader BJG-05-039 and ATP-competitive degraders BJG-05-093, BJG-05-094, and BJG-05-095.
BJG-05-014, BJG-05-027, and BJG-05-039 were tested in Panc1 cells for their ability to degrade PAK1.

Work on `O=C1CCC(N2C(=O)c3cccc(NCCCCCCCCNC(=O)N4CC[C@H](NC5=Nc6cc(F)ccc6N(CC(F)F)c6ccc(Cl)cc65)C4)c3C2=O)C(=O)N1` (stereo partly drawn) [BJG-05-039, (3S)-3-((2-Chloro-5-(2,2-difluoroethyl)-8-fluoro-5H-dibenzo[b,e][1,4]diazepin-11-yl)amino)-N-(8-((2-(2,6-dioxopiperidin-3-yl)-1,3-dioxoisoindolin-4-yl)amino)octyl)pyrrolidine-1-carboxamide] yielded a remaining binding at 10 µM (PFPK5(P. falciparum)) of 100%, a remaining binding at 10 µM (PRKX) of 48% and a remaining binding at 10 µM (NLK) of 53%. The remaining binding at 10 µM (FRK) was 67%, the remaining binding at 10 µM (CAMK1D) was 68% and the remaining binding at 10 µM (STK39) was 70%. The remaining binding at 10 µM (BUB1) was 73%, the remaining binding at 10 µM (CSK) was 74% and the remaining binding at 10 µM (PAK4) was 75%. The remaining binding at 10 µM (TLK2) was 80%, the remaining binding at 10 µM (AMPK-alpha1) was 86% and the remaining binding at 10 µM (CDK5) was 90%. It also gave a remaining binding at 10 µM (GSK3B) of 90%, a remaining binding at 10 µM (HCK) of 90% and a remaining binding at 10 µM (GRK3) of 92%. For the same compound, the remaining binding at 10 µM (SYK) was 92%, the remaining binding at 10 µM (TESK1) was 92% and the remaining binding at 10 µM (TNK2) was 92%. The remaining binding at 10 µM (INSR) was 93%, the remaining binding at 10 µM (SRPK3) was 93% and the remaining binding at 10 µM (TAOK2) was 93%. The remaining binding at 10 µM (FGFR3(G697C)) was 95%, the remaining binding at 10 µM (PIP5K1A) was 95% and the remaining binding at 10 µM (EGFR(T790M)) was 97%. The remaining binding at 10 µM (MST1R) was 97%, the remaining binding at 10 µM (p38-beta) was 97% and the remaining binding at 10 µM (EIF2AK1) was 98%. It also gave a remaining binding at 10 µM (MAP3K15) of 99%, a remaining binding at 10 µM (GRK7) of 100% and a remaining binding at 10 µM (LATS1) of 100%. It also gave a remaining binding at 10 µM (MARK4) of 100%, a remaining binding at 10 µM (PIK3CB) of 100% and a remaining binding at 10 µM (PRKCI) of 100%. The “Ability to degrade PAK1” value (PAK1) was “most promising profile”.
